In paper PMC11432405, “Development of Novel Alaninamide Derivatives with Anticonvulsant Activity and Favorable Safety Profiles in Animal Models” (International Journal of Molecular Sciences, 2024):
Read-outs that look alike come from different tables or passages of the source.

Experiments:
[1] = test system: maximal electroshock (MES) seizures; experiment: maximal electroshock seizure (MES) test; type: in vivo, mice; settings: mice i.p.; for responders at 100 mg/kg / ED50: Mus musculus, ip; for ED50: TPE 0.5 h, 95% confidence interval in parentheses
Description: Epilepsy is a multifaceted disorder with often unclear etiology, making it challenging to pinpoint a specific receptor or transporter as the definitive target. Consequently, the discovery of ASMs deviates from the traditional drug development pathway, which typically involves designing a new molecule, docking it with a specific biological target, and performing chemical synthesis, followed by in vitro assays. Instead, numerous animal seizure models, which mirror various types of human epileptic seizures, are initially employed in the process of new ASM discovery. This approach has been instrumental in the identification and introduction into clinical practice of all currently used ASMs and continues to be a cornerstone in the preclinical development of new anticonvulsants. The primary justification for prioritizing in vivo screening over in vitro binding and functional studies is the complex and often not fully elucidated mechanisms of action of known ASMs. This approach also facilitates the discovery of compounds with novel, previously undefined pharmacodynamic properties. In light of this, we evaluated all compounds obtained in the current studies using the MES test, which remains one of the most valuable preclinical screening models for tonic-clonic seizures, as well as partial convulsions with or without secondary generalization in humans. This test allows for a comprehensive assessment of the anticonvulsant efficacy of new ASM candidates and is considered highly relevant for predicting their therapeutic efficacy in human epilepsy. The MES test was carried out in mice following the intraperitoneal (i.p.) administration of a screening dose of 100 mg/kg in a group consisting of four animals. The efficacy of the compounds synthesized was evaluated at 0.5 h pretreatment time.
Fresh solutions were prepared daily for each experimentation session.
Each group consisted of six animals.

human recombinant MAO-B = target: T1, human recombinant MAO-B (Homo sapiens, UniProt P27338); experiment: fluorometric monoamine oxidase B inhibition assay; type: biochemical; settings: for % inhibition MAO-B (1 µM): mean of two independent experiments; for inhibition at 1 µM: read-out: % inhibition MAO-B (1 µM), mean of two independent experiments
T1 construct: purchased Sigma Aldrich
T1 sequence (P27338 1-520): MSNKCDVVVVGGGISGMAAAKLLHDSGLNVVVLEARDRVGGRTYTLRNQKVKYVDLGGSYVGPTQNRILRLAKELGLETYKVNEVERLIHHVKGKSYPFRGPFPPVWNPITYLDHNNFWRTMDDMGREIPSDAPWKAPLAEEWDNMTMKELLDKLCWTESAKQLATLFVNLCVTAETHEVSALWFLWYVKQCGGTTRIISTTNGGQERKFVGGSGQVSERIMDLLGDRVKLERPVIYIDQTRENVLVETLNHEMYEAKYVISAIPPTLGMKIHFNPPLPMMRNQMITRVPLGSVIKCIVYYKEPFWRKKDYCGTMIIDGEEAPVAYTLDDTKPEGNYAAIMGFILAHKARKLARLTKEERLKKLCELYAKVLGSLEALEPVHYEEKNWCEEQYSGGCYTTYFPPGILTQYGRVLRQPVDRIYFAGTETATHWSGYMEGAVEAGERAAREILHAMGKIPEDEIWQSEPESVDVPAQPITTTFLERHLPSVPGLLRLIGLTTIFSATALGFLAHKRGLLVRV

6 Hz (32 mA) seizures = experiment: 6 Hz (32 mA) psychomotor seizure model; settings: for protection (efficacy) in the 6 Hz (32 mA) screening / 6 Hz (32 mA) test: number of mice protected / number of mice tested: mice i.p.; for protection (efficacy) in the 6 Hz (32 mA) screening: 100 mg/kg, four mice; for protection (efficacy) in the 6 Hz (32 mA) screening / ED50 / responders at 100 mg/kg: 0.5 h; for 6 Hz (32 mA) test: number of mice protected / number of mice tested: dose of 100 mg/kg, pretreatment time 0.5 h; for ED50 / responders at 100 mg/kg: Mus musculus, ip; for ED50: read-out: ED50 6 Hz (32 mA), mice i.p., TPE 0.5 h, 95% confidence interval in parentheses; for responders at 100 mg/kg: read-out: protection (efficacy) in the 6 Hz (32 mA) screening;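 on all read-outs here: adult male albino Swiss CD-1 mice, each used once, with compounds suspended in 1% Tween 80 in water as vehicle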
[2] = rotarod test (acute neurological toxicity, motor coordination); type: in vivo; settings: male, CD-1 (albino Swiss), mouse, in vivo, ip, mice i.p.
Description: The protective indexes (PIs) were then calculated as the ratio of TD50 to ED50 (PI = TD50/ED50), providing an assessment of the therapeutic window for each compound.

[3] = dose of 100 mg/kg, pretreatment time 0.5 h
[4] = 100 mg/kg, 0.5 h, four mice, read-out: protection (efficacy) in the MES screening
[5] = dose of 100 mg/kg, pretreatment time 0.5 h, read-out: MES test: number of mice protected / number of mice tested (converted)

Structure (SMILES)	protection (efficacy) in the MES screening ([1]; 100 mg/kg, 0.5 h, four mice)	MES test: number of mice protected / number of mice tested [1, 3]	% inhibition MAO-B (1 µM) (human recombinant MAO-B)	protection (efficacy) in the 6 Hz (32 mA) screening (6 Hz (32 mA) seizures)	6 Hz (32 mA) test: number of mice protected / number of mice tested (6 Hz (32 mA) seizures)	responders at 100 mg/kg [1, 4]	ED50 [1]	responders at 100 mg/kg [1, 5]	TD50 at 0.5 h [2]	inhibition at 1 µM (human recombinant MAO-B)	melting point	ED50 (6 Hz (32 mA) seizures)	responders at 100 mg/kg (6 Hz (32 mA) seizures)
CC(C(=O)NCc1ccc(OCc2ccccc2F)cc1)N1C(=O)CCC1=O (stereo not shown) [Compound 6, 2-(2,5-dioxopyrrolidin-1-yl)-N-(4-((2-fluorobenzyl)oxy)benzyl)propanamide]	100%	4/4	0%	100%	4/4	–	–	–	–	–	–	–	–
CC(C(=O)NCc1ccc(OCc2ccc(F)cc2)cc1)N1C(=O)CCC1=O (stereo not shown) [Compound 8, 2-(2,5-dioxopyrrolidin-1-yl)-N-(4-((4-fluorobenzyl)oxy)benzyl)propanamide]	50%	–	0%	50%	–	–	–	–	–	–	–	–	–
CC(C(=O)NCc1ccc(OCc2ccc(Cl)cc2)cc1)N1C(=O)CCC1=O (stereo not shown) [Compound 11, N-(4-((4-chlorobenzyl)oxy)benzyl)-2-(2,5-dioxopyrrolidin-1-yl)propanamide]	≤ 25%	0/4	0%	25%	1/4	–	–	–	–	–	–	–	–
CC(C(=O)NCc1ccc(OCc2ccccc2C(F)(F)F)cc1)N1C(=O)CCC1=O (stereo not shown) [Compound 12, 2-(2,5-dioxopyrrolidin-1-yl)-N-(4-((2-(trifluoromethyl)benzyl)oxy)benzyl)propanamide]	–	–	–	–	–	100%	46.2 mg/kg	100%	> 300 mg/kg	0%	122.9 to 123.4 °C	52.7 mg/kg	75%
CC(C(=O)NCc1ccc(OCc2cccc(C(F)(F)F)c2)cc1)N1C(=O)CCC1=O (stereo not shown) [Compound 13, 2-(2,5-dioxopyrrolidin-1-yl)-N-(4-((3-(trifluoromethyl)benzyl)oxy)benzyl)propanamide]	–	–	–	–	–	100%	69.7 mg/kg	100%	> 300 mg/kg	0%	–	67.9 mg/kg	100%
CC(C(=O)NCc1ccc(OCc2ccc(C(F)(F)F)cc2)cc1)N1C(=O)CCC1=O (stereo not shown) [Compound 14, 2-(2,5-dioxopyrrolidin-1-yl)-N-(4-((4-(trifluoromethyl)benzyl)oxy)benzyl)propanamide]	–	–	–	–	–	50%	–	50%	–	0%	–	–	50%
CC(C(=O)NCc1ccc(OCc2ccccc2OC(F)(F)F)cc1)N1C(=O)CCC1=O (stereo not shown) [Compound 15, 2-(2,5-dioxopyrrolidin-1-yl)-N-(4-((2-(trifluoromethoxy)benzyl)oxy)benzyl)propanamide]	–	–	–	–	–	50%	–	50%	–	0%	110.5 to 111.2 °C	–	25%
CC(C(=O)NCc1ccc(OCc2cccc(OC(F)(F)F)c2)cc1)N1C(=O)CCC1=O (stereo not shown) [Compound 16, 2-(2,5-dioxopyrrolidin-1-yl)-N-(4-((3-(trifluoromethoxy)benzyl)oxy)benzyl)propanamide]	–	–	–	–	–	100%	40.5 mg/kg	100%	> 300 mg/kg	31%	112.2 to 112.9 °C	63 mg/kg	50%
Cc1ccccc1COc1ccc(CNC(=O)C(C)N2C(=O)CCC2=O)cc1 (stereo not shown) [Compound 18, 2-(2,5-dioxopyrrolidin-1-yl)-N-(4-((2-methylbenzyl)oxy)benzyl)propanamide]	–	–	–	–	–	75%	89.2 mg/kg	75%	> 300 mg/kg	0%	126.1 to 126.8 °C	57.7 mg/kg	75%
Cc1cccc(COc2ccc(CNC(=O)C(C)N3C(=O)CCC3=O)cc2)c1 (stereo not shown) [Compound 19, 2-(2,5-dioxopyrrolidin-1-yl)-N-(4-((3-methylbenzyl)oxy)benzyl)propanamide]	–	–	–	–	–	≤ 25%	–	25%	–	0%	–	–	25%
Cc1ccc(COc2ccc(CNC(=O)C(C)N3C(=O)CCC3=O)cc2)cc1 (stereo not shown) [Compound 20, 2-(2,5-dioxopyrrolidin-1-yl)-N-(4-((4-methylbenzyl)oxy)benzyl)propanamide]	–	–	–	–	–	≤ 25%	–	0%	–	0%	–	–	–
CC(C)(C(=O)NCc1ccc(OCc2ccccc2)cc1)N1C(=O)CCC1=O [Compound 21, N-(4-(benzyloxy)benzyl)-2-(2,5-dioxopyrrolidin-1-yl)-2-methylpropanamide]	–	–	–	–	–	≤ 25%	–	25%	–	0%	170.3 to 171.2 °C	–	–
CC(C(=O)NCc1cccc(OCc2ccccc2)c1)N1C(=O)CCC1=O (stereo not shown) [Compound 22, N-(3-(benzyloxy)benzyl)-2-(2,5-dioxopyrrolidin-1-yl)propanamide]	–	–	–	–	–	≤ 25%	–	25%	–	0%	105.3 to 106.1 °C	–	–
CC(C(=O)NCc1ccccc1OCc1ccccc1)N1C(=O)CCC1=O (stereo not shown) [Compound 23, N-(2-(benzyloxy)benzyl)-2-(2,5-dioxopyrrolidin-1-yl)propanamide]	–	–	–	–	–	≤ 25%	–	25%	–	0%	–	–	–
CC(C(=O)NCc1ccc(OCc2ccccc2)cc1)N1CCCC1=O (stereo not shown) [Compound 36, N-(4-(benzyloxy)benzyl)-2-(2-oxopyrrolidin-1-yl)propanamide]	–	–	–	–	–	–	–	100%	–	0%	110.5 to 110.9 °C	–	25%
CC(C(=O)NCc1ccc(OCc2ccccc2C(F)(F)F)cc1)N1CCCC1=O (stereo not shown) [Compound 37, 2-(2-oxopyrrolidin-1-yl)-N-(4-((2-(trifluoromethyl)benzyl)oxy)benzyl)propanamide]	–	–	–	–	–	–	–	100%	–	0%	121.8 to 122.5 °C	–	50%
